We go through 22 compounds from patent publication US20230293458A1, “MULTIBIOTIC AGENTS AND METHODS OF USING THE SAME” (Flagship Pioneering Innovations V, Inc., priority 2017, published 2023).

Data set [1] is described as follows: Stability of multibiotic agents in Simulated Intestinal Fluid (SIF). It is filed as in vitro ADME. Particulars: simulated intestinal fluid pH 6.7 with pancreatin, 37° C., 1 μM. The method in brief:
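Compounds at 1 μM final (from 1 mM DMSO stock) incubated at 37 °C with agitation in fresh SIF (FaSSIF plus pancreatin in pH 6.7 phosphate buffer). Aliquots taken at T0 and regular intervals, quenched with 1 volume acetonitrile. Degradation rate determined by LC/MS.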

The nature of data set [2]: Stability of multibiotic agents in Simulated Gastric Fluid (SGF). Particulars: simulated gastric fluid pH 1.6 with pepsin, 37° C., 1 μM. The data set is classed as in vitro ADME. The method in brief:
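Compounds were incubated at 1 μM final at 37 °C in simulated gastric fluid containing NaCl, pH 1.6, with FaSSIF powder and 0.1 mg/mL pepsin. Aliquots were taken at T0 and at regular intervals and quenched with acetonitrile. Degradation rates were determined by LC/MS.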

SMILES strings stand for the structures.

On to `O=C(Cc1c[nH]c2ccccc12)Oc1ccc(/C=C/c2cc(OC(=O)Cc3c[nH]c4ccccc34)cc(OC(=O)Cc3c[nH]c4ccccc34)c2)cc1` [Example 8, [4-[(E)-2-[3,5-bis[[2-(1H-indol-3-yl)acetyl]oxy]phenyl]vinyl]phenyl] 2-(1H-indol-3-yl)acetate], for which the “Assay 3 (SIF) (% @ Remaining 4 hours)” value in data set [1] was “C (>75% of the tested compound remaining)”. For the same compound, in data set [2], the “Assay 2 (SGF) (% Remaining @ 4 hours)” value was “C (>75% of the tested compound remaining)”.
As for `O=C(Cc1c[nH]c2ccccc12)OC[C@@H](O)[C@H](COC(=O)Cc1c[nH]c2ccccc12)OC(=O)Cc1c[nH]c2ccccc12` [Example 104, [(2R,3S)-2-hydroxy-3,4-bis[[2-(1H-indol-3-yl)acetyl]oxy]butyl] 2-(1H-indol-3-yl)acetate], the “Assay 3 (SIF) (% @ Remaining 4 hours)” value in data set [1] is reported as “B (25-75% of the tested compound remaining)”. Further, in data set [2], the “Assay 2 (SGF) (% Remaining @ 4 hours)” value is reported as “C (>75% of the tested compound remaining)”.
With `O=C(Cc1c[nH]c2ccccc12)O[C@H]1[C@@H](OC(=O)Cc2c[nH]c3ccccc23)COC(O)[C@@H]1OC(=O)Cc1c[nH]c2ccccc12` (stereo partly drawn) [Example 147, [(3S,4S,5R)-6-hydroxy-4,5-bis[[2-(1H-indol-3-yl)acetyl]oxy]tetrahydropyran-3-yl] 2-(1H-indol-3-yl)acetate], the “Assay 3 (SIF) (% @ Remaining 4 hours)” value in data set [1] is on record as “B (25-75% of the tested compound remaining)”. For the same compound, the “Assay 2 (SGF) (% Remaining @ 4 hours)” value in data set [2] is given as “C (>75% of the tested compound remaining)”.
As for `O=C(CCc1c[nH]c2ccccc12)O[C@H]1CO[C@H]2[C@@H]1OC[C@H]2OC(=O)CCc1c[nH]c2ccccc12` [Example 110, [(3S,3aR,6R,6aR)-6-[3-(1H-indol-3-yl)propanoyloxy]-2,3,3a,5,6,6a-hexahydrofuro[3,2-b]furan-3-yl] 3-(1H-indol-3-yl) propanoate], the “Assay 3 (SIF) (% @ Remaining 4 hours)” value in data set [1] is given as “A (<25% of the tested compound remaining)”. In addition, the “Assay 2 (SGF) (% Remaining @ 4 hours)” value in data set [2] is listed as “C (>75% of the tested compound remaining)”.
Consider `C[C@@H]1OC(O)[C@H](OC(=O)Cc2c[nH]c3ccccc23)[C@H](OC(=O)Cc2c[nH]c3ccccc23)[C@H]1OC(=O)Cc1c[nH]c2ccccc12` (stereo partly drawn) [Example 155, [(2S,3S,4R,5R)-6-hydroxy-4,5-bis[[2-(1H-indol-3-yl)acetyl]oxy]-2-methyl-tetrahydropyran-3-yl] 2-(1H-indol-3-yl)acetate], for which the “Assay 3 (SIF) (% @ Remaining 4 hours)” value in data set [1] is “C (>75% of the tested compound remaining)”. Further, the “Assay 2 (SGF) (% Remaining @ 4 hours)” value in data set [2] is reported as “C (>75% of the tested compound remaining)”.
As for `CC(=O)OCc1cnc(C)c(OC(C)=O)c1COC(C)=O` [Example 99, [5-acetoxy-4-(acetoxymethyl)-6-methyl-3-pyridyl] methyl acetate], the “Assay 3 (SIF) (% @ Remaining 4 hours)” value in data set [1] is given as “C (>75% of the tested compound remaining)”. Besides, the “Assay 2 (SGF) (% Remaining @ 4 hours)” value in data set [2] is on record as “C (>75% of the tested compound remaining)”.
Take `CCCC(=O)OC1OC[C@H](OC(=O)CCC)[C@H](OC(=O)CCC)[C@H]1OC(=O)CCC` (stereo partly drawn) [Example 139, [(3S,4S,5R)-4,5,6-tri(butanoyloxy)tetrahydropyran-3-yl] butanoate]: the “Assay 3 (SIF) (% @ Remaining 4 hours)” value in data set [1] is on record as “C (>75% of the tested compound remaining)”. For the same compound, the “Assay 2 (SGF) (% Remaining @ 4 hours)” value in data set [2] is “C (>75% of the tested compound remaining)”.
Take `CO[C@@H]1[C@@H](OC(C)=O)[C@@H](OC(C)=O)[C@H](OC(C)=O)[C@H](OC(C)=O)[C@H]1OC(C)=O` [Example 84, (1R,2R,3R,4S,5R,6R)-2,3,4,6-tetrakis(acetyloxy)-5-methoxycyclohexyl acetate]: in data set [1], the “Assay 3 (SIF) (% @ Remaining 4 hours)” value is reported as “C (>75% of the tested compound remaining)”. Also, the “Assay 2 (SGF) (% Remaining @ 4 hours)” value in data set [2] is reported as “C (>75% of the tested compound remaining)”.
For the compound `CCCC(=O)Oc1ccc(N)cc1C(=O)O` [Example 2, 5-amino-2-butanoyloxy-benzoic acid], the “Assay 3 (SIF) (% @ Remaining 4 hours)” value in data set [1] is “C (>75% of the tested compound remaining)”. Also, in data set [2], the “Assay 2 (SGF) (% Remaining @ 4 hours)” value is listed as “C (>75% of the tested compound remaining)”.
With `CC(=O)OCCCNC(=O)[C@H](OC(C)=O)C(C)(C)COC(C)=O` [Example 89, 3-[[(2R)-2,4-diacetoxy-3,3-dimethyl-butanoyl]amino]propyl acetate], the “Assay 3 (SIF) (% @ Remaining 4 hours)” value in data set [1] is recorded as “C (>75% of the tested compound remaining)”. The “Assay 2 (SGF) (% Remaining @ 4 hours)” value in data set [2] is recorded as “C (>75% of the tested compound remaining)”.
With `C[C@@H](O)CC(=O)NCCCNCCCNC(=O)C[C@@H](C)O` [Example 143, (3R)-3-hydroxy-N-[3-[3-[[(3R)-3-hydroxybutanoyl]amino]propylamino]propyl] butanamide], the “Assay 3 (SIF) (% @ Remaining 4 hours)” value in data set [1] was “C (>75% of the tested compound remaining)”. In addition, the “Assay 2 (SGF) (% Remaining @ 4 hours)” value in data set [2] is recorded as “C (>75% of the tested compound remaining)”.
For `CCCC(=O)O[C@@H]1[C@H](OC(=O)CCC)COC(O)[C@@H]1OC(=O)CCC` (stereo partly drawn) [Example 144, [(3R,4R,5R)-4,5-di(butanoyloxy)-6-hydroxy-tetrahydropyran-3-yl] butanoate], the “Assay 3 (SIF) (% @ Remaining 4 hours)” value in data set [1] is recorded as “A (<25% of the tested compound remaining)”. The “Assay 2 (SGF) (% Remaining @ 4 hours)” value in data set [2] is “C (>75% of the tested compound remaining)”.
On to `CC(=O)OC[C@@H](OC(C)=O)[C@H]1OC[C@H](OC(C)=O)[C@H]1OC(C)=O` [Example 86, [(2R)-2-acetoxy-2-[(2R,3R,4S)-3,4-diacetoxytetrahydrofuran-2-yl]ethyl] acetate], for which the “Assay 3 (SIF) (% @ Remaining 4 hours)” value in data set [1] was “C (>75% of the tested compound remaining)”. For the same compound, the “Assay 2 (SGF) (% Remaining @ 4 hours)” value in data set [2] is given as “C (>75% of the tested compound remaining)”.
With `C=C1CC[C@H](OC(=O)C2OCC[C@@H](C)O2)C/C1=C/C=C1\CCC[C@]2(C)[C@@H]([C@H](C)CCCC(C)C)CC[C@@H]12` (stereo partly drawn) [Example 186, [(1S,3Z)-3-[(2E)-2-[(1R,3aS,7aR)-1-[(1R)-1,5-dimethylhexyl]-7a-methyl-2,3,3a,5,6,7-hexahydro-1H-inden-4-ylidene]ethylidene]-4-methylene-cyclohexyl] (4R)-4-methyl-1,3-dioxane-2-carboxylate], the “Assay 3 (SIF) (% @ Remaining 4 hours)” value in data set [1] was “C (>75% of the tested compound remaining)”. In addition, the “Assay 2 (SGF) (% Remaining @ 4 hours)” value in data set [2] is given as “C (>75% of the tested compound remaining)”.
Turning to `CCCC(=O)N[C@H]1CC[C@H](NC(=O)CCC)CC1` [Example 132, trans-N-[4-(butanoylamino)cyclohexyl]butanamide], the “Assay 3 (SIF) (% @ Remaining 4 hours)” value in data set [1] is listed as “C (>75% of the tested compound remaining)”. Besides, the “Assay 2 (SGF) (% Remaining @ 4 hours)” value in data set [2] was “C (>75% of the tested compound remaining)”.
Turning to `CCCC(=O)N(C)CCCN(C)C(=O)CCC` [Example 131, N-[3-[butanoyl(methyl)amino]propyl]-N-methyl-butanamide], the “Assay 3 (SIF) (% @ Remaining 4 hours)” value in data set [1] is “C (>75% of the tested compound remaining)”. Also, the “Assay 2 (SGF) (% Remaining @ 4 hours)” value in data set [2] is “C (>75% of the tested compound remaining)”.
For `CCCC(=O)OC[C@H]1OC(O)[C@H](OC(=O)CCC)[C@@H](OC(=O)CCC)[C@@H]1OC(=O)CCC` (stereo partly drawn) [Example 161, [(2R,3R,4S,5R)-3,4,5-tri(butanoyloxy)-6-hydroxy-tetrahydropyran-2-yl]methyl butanoate], in data set [1], the “Assay 3 (SIF) (% @ Remaining 4 hours)” value is on record as “A (<25% of the tested compound remaining)”. The “Assay 2 (SGF) (% Remaining @ 4 hours)” value in data set [2] is recorded as “C (>75% of the tested compound remaining)”.
In the same order, the values of `CCCC(=O)OC[C@@H](OC(=O)CCC)[C@@H](OC(=O)CCC)[C@H](OC(=O)CCC)[C@@H](OC(=O)CCC)C(=O)Oc1ccc(/C=C/c2cc(OC(=O)[C@H](OC(=O)CCC)[C@@H](OC(=O)CCC)[C@H](OC(=O)CCC)[C@@H](COC(=O)CCC)OC(=O)CCC)cc(OC(=O)[C@H](OC(=O)CCC)[C@@H](OC(=O)CCC)[C@H](OC(=O)CCC)[C@@H](COC(=O)CCC)OC(=O)CCC)c2)cc1` [Example 164, [4-[(E)-2-[3,5-bis[[(2R,3S,4R,5R)-2,3,4,5,6-penta(butanoyloxy)hexanoyl]oxy]phenyl]vinyl]phenyl] (2R,3S,4R,5R)-2,3,4,5,6-penta(butanoyloxy)hexanoate] are “B (25-75% of the tested compound remaining)” and “B (25-75% of the tested compound remaining)”.
In the same order, the values of `C[C@@H](O)CC(=O)OCCCNC(=O)[C@H](OC(=O)C[C@@H](C)O)C(C)(C)COC(=O)C[C@@H](C)O` [Example 111, 3-[[(2R)-2,4-bis[[(3R)-3-hydroxybutanoyl]oxy]-3,3-dimethyl-butanoyl]amino]propyl (3R)-3-hydroxybutanoate] are “C (>75% of the tested compound remaining)” and “C (>75% of the tested compound remaining)”.
Consider `CC(=O)Oc1cc(OC(C)=O)c2c(=O)c(OC(C)=O)c(-c3cc(OC(C)=O)c(OC(C)=O)c(OC(C)=O)c3)oc2c1` [Example 177, [3,5-diacetoxy-4-oxo-2-(3,4,5-triacetoxyphenyl)chromen-7-yl] acetate], for which, in data set [1], the “Assay 3 (SIF) (% @ Remaining 4 hours)” value was “A (<25% of the tested compound remaining)”. Moreover, in data set [2], the “Assay 2 (SGF) (% Remaining @ 4 hours)” value is “C (>75% of the tested compound remaining)”.
On to `CCC(=O)OC1OC[C@@H](OC(=O)CC)[C@H](OC(=O)CC)[C@H]1OC(=O)CC` (stereo partly drawn) [Example 165, [(3R,4S,5R)-4,5,6-tri(propanoyloxy)tetrahydropyran-3-yl] propanoate], for which the “Assay 3 (SIF) (% @ Remaining 4 hours)” value in data set [1] is listed as “A (<25% of the tested compound remaining)”. The “Assay 2 (SGF) (% Remaining @ 4 hours)” value in data set [2] is recorded as “C (>75% of the tested compound remaining)”.
As for `CCCC(=O)OC1O[C@@H](C)[C@H](OC(=O)CCC)[C@@H](OC(=O)CCC)[C@H]1OC(=O)CCC` (stereo partly drawn) [Example 152, [(2S,3S,4R,5R)-4,5,6-tri(butanoyloxy)-2-methyl-tetrahydropyran-3-yl] butanoate], in data set [1], the “Assay 3 (SIF) (% @ Remaining 4 hours)” value is recorded as “C (>75% of the tested compound remaining)”. Besides, the “Assay 2 (SGF) (% Remaining @ 4 hours)” value in data set [2] is “C (>75% of the tested compound remaining)”.
